Columns and labels:
[1] = tested on: Trop2-positive cell lines; test: In vitro cell viability (in vitro potency) of SN38 based ADCs; conditions: various target-positive cell lines
Description: Antibody-drug conjugates (ADCs) comprising the anti-Trop2 antibody Sacituzumab, a phosphorus(V) moiety according to embodiments of the present invention, and SN38 as drug were tested in in vitro potency assays against various Trop2-positive cell lines. The corresponding ADCs with the non-targeted antibody Trastuzumab were used as isotype control. For direct comparison, the approved and marketed ADC Trodelvy comprising Sacituzumab, a CL2A linker and SN38 as drug was also tested. The corresponding ADC with Trastuzumab was used as isotype control.
Linkers have been conjugated to Sacituzumab (anti-Trop2) and Trastuzumab (anti Her2, isotype in this setting) and tested on a panel of 4 different cell lines. All cell lines were Trop+ and Her2−. Trastuzumab conjugates serve as isotype control in this setting. […] Sacituzumab-CL2A-SN38 is Trodelvy and has been purchased for the experiment.

[2] = tested on: HER2+ cell lines (N87 and SKBR3); test: In vitro efficacy with hydroxy-containing drugs (aromatic and aliphatic alcohols); assay type: cell-based; conditions: unconjugated drug
Description: The scope of the linker system of conjugates in accordance with embodiments of the invention has been evaluated with further phenol-(or aromatic alcohol-) containing drugs OTS-964, Ganetespib and Birabresib. OTS-964 is a potent TOPK inhibitor, Ganetespib is a potent […], and Birabresib is a potent bromodomain inhibitor. […] Potency of the free payloads (OTS-964, Ganetespib and Birabresib) in the respective cell lines is also shown.
The scope of the linker system described herein has been also evaluated with further aliphatic alcohol-containing drugs SNX-2112, Gemcitabine and Barasertib. SNX-2112 is a potent HSP90-inhibitor, Gemcitabine is a potent ribonucleotide reductase inhibitor, and Barasertib is a potent Aurora B kinase inhibitor. […] Potency of the free payloads (SNX-2112, Gemcitabine and Barasertib) in the respective cell lines is also shown.

| Compound | in vitro potency, non-cleavable control vs cleavable conjugate [1] | activity of free payload [2] |
| --- | --- | --- |
| Sacituzumab conjugated to O—P5(PEG12)-amidopentyl-Phosphoramidate-N-(4-Methylbenzyl)-O—SN38 | not active in the in vitro cell viability assay |  |
| Cc1cc(O)c(-c2ccc(C(C)CN(C)C)cc2)c2c1[nH]c(=O)c1sccc12 (stereo not shown) [OTS-964] |  | lower activities of the unconjugated drugs |
| CC(C)c1cc(-c2n[nH]c(=O)n2-c2ccc3c(ccn3C)c2)c(O)cc1O [Ganetespib] |  | highest activity as free payload |
| Cc1sc2c(c1C)C(c1ccc(Cl)cc1)=N[C@@H](CC(=O)Nc1ccc(O)cc1)c1nnc(C)n1-2 [Birabresib] |  | lower activities of the unconjugated drugs |

Reference: patent US20240269313A1, “CONJUGATES COMPRISING A PHOSPHORUS(V) MOIETY AND A DRUG” (Tubulis GmbH, priority 2022, published 2024)
